Laboratory results taken from ChEMBL document CHEMBL1137334 (J Med Chem, 2006).
pIC50: −log10 of the molar value.

Legend:
[1] = target: Proto-oncogene tyrosine-protein kinase Src (Homo sapiens, UniProt P12931)
Description: Inhibition of human c-Src in NIH3T3 cells

[2] = target: Vascular endothelial growth factor receptor 2 (Homo sapiens, UniProt P35968); assay: Inhibition of KDR
[3] = AUC (0-24h) in mouse at 20 mg/kg, po; format: ADME, organism-based; design: time < 24 hr, dose 20 mg/kg, route oral; settings: plasma
A549 = assay: Inhibition of A549 cell migration by microdroplet migration assay; format: functional, cell-based; settings: Homo sapiens

Vascular endothelial growth factor receptor 2, sequence (P35968 whole entry): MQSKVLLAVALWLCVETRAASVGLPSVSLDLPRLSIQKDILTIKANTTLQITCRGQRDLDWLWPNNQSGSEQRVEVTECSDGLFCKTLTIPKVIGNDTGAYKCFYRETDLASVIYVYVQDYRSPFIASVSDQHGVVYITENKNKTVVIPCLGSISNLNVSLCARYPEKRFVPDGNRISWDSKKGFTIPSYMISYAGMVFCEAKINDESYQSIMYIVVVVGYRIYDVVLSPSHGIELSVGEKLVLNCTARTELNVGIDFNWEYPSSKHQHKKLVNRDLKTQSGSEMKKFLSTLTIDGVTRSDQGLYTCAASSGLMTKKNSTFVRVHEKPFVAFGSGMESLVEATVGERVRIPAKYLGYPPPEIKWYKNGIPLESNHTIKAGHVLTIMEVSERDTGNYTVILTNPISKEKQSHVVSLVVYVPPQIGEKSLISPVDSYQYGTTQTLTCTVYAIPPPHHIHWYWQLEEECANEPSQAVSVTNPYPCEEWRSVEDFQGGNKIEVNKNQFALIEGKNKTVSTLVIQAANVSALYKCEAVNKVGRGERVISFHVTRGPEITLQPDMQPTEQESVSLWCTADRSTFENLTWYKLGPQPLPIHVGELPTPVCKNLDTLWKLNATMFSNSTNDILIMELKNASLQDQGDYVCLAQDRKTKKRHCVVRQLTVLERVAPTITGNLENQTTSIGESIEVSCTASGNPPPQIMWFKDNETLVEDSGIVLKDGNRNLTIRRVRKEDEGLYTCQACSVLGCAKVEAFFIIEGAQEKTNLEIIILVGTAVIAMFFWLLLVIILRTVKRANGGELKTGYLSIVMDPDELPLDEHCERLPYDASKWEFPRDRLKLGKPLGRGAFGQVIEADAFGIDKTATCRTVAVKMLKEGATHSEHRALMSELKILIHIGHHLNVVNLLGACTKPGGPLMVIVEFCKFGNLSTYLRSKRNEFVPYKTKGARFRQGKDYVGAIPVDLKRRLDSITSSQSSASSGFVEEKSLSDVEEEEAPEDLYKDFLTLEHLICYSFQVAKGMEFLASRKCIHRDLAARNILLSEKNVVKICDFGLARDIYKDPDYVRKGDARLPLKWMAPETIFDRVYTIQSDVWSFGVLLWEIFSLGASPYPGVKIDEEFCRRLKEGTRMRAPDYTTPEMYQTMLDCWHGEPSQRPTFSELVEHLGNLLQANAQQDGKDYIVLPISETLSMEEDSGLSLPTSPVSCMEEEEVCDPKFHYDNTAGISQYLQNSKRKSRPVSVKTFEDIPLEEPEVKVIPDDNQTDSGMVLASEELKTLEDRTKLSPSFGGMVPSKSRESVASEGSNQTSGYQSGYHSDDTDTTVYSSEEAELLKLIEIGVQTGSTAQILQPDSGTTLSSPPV
Proto-oncogene tyrosine-protein kinase Src, sequence (P12931 2-536 limits assumed): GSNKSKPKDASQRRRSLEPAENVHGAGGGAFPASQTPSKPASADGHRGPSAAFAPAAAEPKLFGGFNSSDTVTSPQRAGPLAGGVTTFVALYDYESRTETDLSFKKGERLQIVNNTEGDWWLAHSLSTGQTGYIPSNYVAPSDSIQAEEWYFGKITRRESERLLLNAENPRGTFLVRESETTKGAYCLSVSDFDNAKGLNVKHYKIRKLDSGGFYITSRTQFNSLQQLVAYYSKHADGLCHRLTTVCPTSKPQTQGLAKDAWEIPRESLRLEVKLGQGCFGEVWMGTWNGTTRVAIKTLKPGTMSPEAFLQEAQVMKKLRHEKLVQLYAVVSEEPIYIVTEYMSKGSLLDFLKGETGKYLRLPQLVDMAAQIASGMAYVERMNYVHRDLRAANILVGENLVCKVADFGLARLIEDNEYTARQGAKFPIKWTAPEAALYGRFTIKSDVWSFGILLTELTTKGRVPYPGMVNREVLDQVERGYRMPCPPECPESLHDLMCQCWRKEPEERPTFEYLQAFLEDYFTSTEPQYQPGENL

Structure (SMILES) | pIC50 [1] | pIC50 [2] | AUC(0-t) at 24 h [3] | pIC50 (A549)
CN1CCN(CCOc2cc(OC3CCOCC3)c3c(Nc4c(Cl)ccc5c4OCCO5)ncnc3c2)CC1 | 7.19 |  |  | 
c1cc(Nc2ncnc3cc(OCCCN4CCCC4)cc(OC4CCOCC4)c23)c2c(c1)OCO2 | 7.40 | 7.00 |  | 
CC(C)Oc1cc(OC2CCN(C)CC2)c2c(Nc3c(Cl)ccc4c3OCO4)ncnc2c1 | 7.00 |  |  | 
c1cc(Nc2ncnc3cc(OCCN4CCCC4)cc(OC4CCOCC4)c23)c2c(c1)OCCO2 | 7.07 | 7.30 |  | 
COc1cc2c(Nc3c(Cl)ccc4c3OCO4)ncnc2cc1OCC1CCN(C)CC1 |  |  | 38000 ng·h/mL | 
COc1ccc(Cl)c(Nc2ncnc3ccc(OCCCN4CCN(C)CC4)c(OC4CCOCC4)c23)c1 | 6.22 |  |  | 
COc1ccc(Cl)c(Nc2ncnc3cc(OCCCN4CCOCC4)cc(OC4CCOCC4)c23)c1 | 7.70 |  |  | 7.10
COc1ccc(Cl)c(Nc2ncnc3cc(OCCCN4CCOCC4)cc(OC4CCCCC4)c23)c1 | 7.70 | 5.26 |  | 5.60
CN1CCC(Oc2cc(OCCF)cc3ncnc(Nc4c(Cl)ccc5c4OCO5)c23)CC1 | 8.40 | < 4.70 |  | 7.05
COc1ccc(Cl)c(Nc2ncnc3cc(OC)cc(OCCCN4CCOCC4)c23)c1 | 6.64 |  |  | 
CN1CCC(Oc2cccc3ncnc(Nc4c(Cl)ccc5c4OCO5)c23)CC1 | 7.00 |  |  | 6.15
COc1ccc(Cl)c(Nc2ncnc3cccc(OC4CCOCC4)c23)c1 | 6.40 |  |  | 
CN1CCC(COc2cccc3ncnc(Nc4c(Cl)ccc5c4OCO5)c23)CC1 | 6.30 |  |  | 
CC(=O)N1CCN(CCOc2cc(OC(C)C)c3c(Nc4c(F)ccc5c4OCO5)ncnc3c2)CC1 | 7.70 | 5.19 |  | 6.54
COc1cc(OC2CCN(C)CC2)c2c(Nc3cccc4c3OCO4)ncnc2c1 | 6.82 | 5.60 |  | 
COc1ccc(Cl)c(Nc2ncnc3cc(OCCCN4CCOCC4)cc(OC(C)C)c23)c1 |  |  |  | 6.40

Structure (SMILES) | pIC50 [1] | pIC50 [2] | AUC(0-t) at 24 h [3] | pIC50 (A549)
CN1CCN(CCCOc2cc(OC3CCOCC3)c3c(Nc4c(Cl)ccc5c4OCO5)ncnc3c2)CC1 | > 8.40 | 6.00 |  | 6.70
COc1cc(OCCCN2CCCC2)cc2ncnc(Nc3c(Cl)ccc4c3OCO4)c12 | 7.82 |  |  | 
CC(C)Oc1cc(OCCCN2CCCC2)cc2ncnc(Nc3c(Cl)ccc4c3OCO4)c12 | > 8.40 | 5.92 |  | 6.82
COc1ccc(Cl)c(Nc2ncnc3cc(OC)c(OC)cc23)c1 | 6.60 |  |  | 
c1cc(Nc2ncnc3cc(OCCN4CCCC4)cc(OC4CCOCC4)c23)c2c(c1)OCO2 | 7.10 | 6.19 |  | 
Clc1ccc2c(c1Nc1ncnc3cc(OCCN4CCCC4)cc(OC4CCOCC4)c13)OCCO2 | 6.96 |  |  | 
COc1cc(OC2CCN(C)CC2)c2c(Nc3cccc4c3OCCO4)ncnc2c1 | 6.24 | 6.30 |  | 
Clc1ccc2c(c1Nc1ncnc3cc(OCCN4CCCC4)cc(N4CCOCC4)c13)OCO2 | 7.12 | 5.30 |  | 5.92
COc1ccc(Cl)c(Nc2ncnc3cc(OC)cc(OC4CCN(C)CC4)c23)c1 | 7.52 | < 5.70 |  | 6.52
COc1ccc(Cl)c(Nc2ncnc3cc(OCCCN4CCOCC4)cc(OC4CCOC4)c23)c1 (racemic) | > 8.40 | 7.30 |  | 
COc1ccc(Cl)c(Nc2ncnc3cccc(OC4CCN(C)CC4)c23)c1 | 6.52 | < 5.30 |  | 
COc1ccc(Cl)c(Nc2ncnc3cc(OCCCN4CCN(C)CC4)cc(OC4CCOCC4)c23)c1 | > 8.40 | 7.40 |  | 6.52
COc1ccc(Cl)c(Nc2ncnc3ccc(OC)c(OC4CCN(C)CC4)c23)c1 | 6.27 |  |  | 
Clc1ccc2c(c1Nc1ncnc3cccc(Oc4ccncc4)c13)OCO2 | 7.26 | < 4.48 |  | 6.30
COc1cc2c(Nc3c(Cl)ccc4c3OCO4)ncnc2cc1OCCCN1CCCC1 | 8.30 |  | 13000 ng·h/mL | 
COc1ccc(Cl)c(Nc2ncnc3cc(OC)cc(OC)c23)c1 | 5.43 |  |  | 
